How the values were obtained:
thioredoxin reductase = target: T1, thioredoxin reductase (Homo sapiens, UniProt Q16881); conditions: cited from earlier work
T1 sequence (Q16881 1-499 isoform Q16881-5): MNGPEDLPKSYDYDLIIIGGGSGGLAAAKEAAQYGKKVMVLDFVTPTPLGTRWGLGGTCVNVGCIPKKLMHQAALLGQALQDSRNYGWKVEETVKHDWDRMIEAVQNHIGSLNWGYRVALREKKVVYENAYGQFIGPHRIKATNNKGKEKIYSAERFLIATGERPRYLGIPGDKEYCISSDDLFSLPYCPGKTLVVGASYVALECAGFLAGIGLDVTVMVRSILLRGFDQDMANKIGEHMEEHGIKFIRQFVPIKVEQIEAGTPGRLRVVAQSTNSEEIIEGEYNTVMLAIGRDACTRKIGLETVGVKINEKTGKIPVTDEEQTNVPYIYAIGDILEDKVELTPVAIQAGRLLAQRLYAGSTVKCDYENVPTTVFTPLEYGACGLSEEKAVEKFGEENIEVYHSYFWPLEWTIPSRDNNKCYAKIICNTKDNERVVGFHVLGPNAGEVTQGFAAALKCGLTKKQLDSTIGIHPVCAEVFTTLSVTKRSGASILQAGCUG

[1] = target: T2, thioredoxin reductase/thioredoxin (Homo sapiens, UniProt Q16881); conditions: cited from earlier work
T2 sequence (Q16881 1-499 isoform Q16881-5): T1 sequence (Q16881 1-499 isoform Q16881-5)

alpha/beta III dimer = alpha/beta III dimer (Bos taurus, UniProt Q2T9S0); conditions: compared with alpha/beta II and alpha/beta IV dimers; cited from earlier work
[2] = system: BT-549 breast cancer cell line; test: drug resistance of breast cancer cell line; format: cell-based; conditions: BT-549 compared with MCF-7
[3] = system: human MCF-7 breast cancer; conditions: MCF-7 tumor system, scid mice; cited from earlier work
HL-60 leukemia = conditions: scid mice; a number of the animals without tumor at day 45; cited from earlier work
erythrocyte tubulin = target: T3, erythrocyte tubulin (Gallus gallus, UniProt P09207); design: dose or concentration left out as unconfirmed; conditions: cited from earlier work
T3 construct: from tissue; host or cells: chicken erythrocytes

brain tubulin = system: brain tubulin; design: dose or concentration left out as unconfirmed; conditions: cited from earlier work
alpha/beta III = target: T4, alpha/beta III (Bos taurus, UniProt Q2T9S0); conditions: cited from earlier work
T4 construct: from tissue; host or cells: bovine brain (cerebra)

alpha/beta II = target: T5, alpha/beta II (Bos taurus, UniProt Q6B856); conditions: cited from earlier work
T5 construct: from tissue; host or cells: bovine cerebra

alpha/beta IV = conditions: cited from earlier work
[4] = system: colon tumors of min mouse; conditions: in the diet at 250 ppm, cited from earlier work
[5] = 2.5 mg/kg, mice; cited from earlier work
[6] = target: T6, thioredoxin reductase and thioredoxin (Homo sapiens, UniProt P10599+Q16881); conditions: cited from earlier work
T6 sequence (Q16881 151-649 limits assumed): T1 sequence (Q16881 1-499 isoform Q16881-5)
T6 sequence (P10599 1-105): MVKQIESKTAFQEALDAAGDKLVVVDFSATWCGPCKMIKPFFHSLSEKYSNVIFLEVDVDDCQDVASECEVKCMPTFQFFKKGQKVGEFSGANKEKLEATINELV

T5 sequence (Q6B856 whole entry): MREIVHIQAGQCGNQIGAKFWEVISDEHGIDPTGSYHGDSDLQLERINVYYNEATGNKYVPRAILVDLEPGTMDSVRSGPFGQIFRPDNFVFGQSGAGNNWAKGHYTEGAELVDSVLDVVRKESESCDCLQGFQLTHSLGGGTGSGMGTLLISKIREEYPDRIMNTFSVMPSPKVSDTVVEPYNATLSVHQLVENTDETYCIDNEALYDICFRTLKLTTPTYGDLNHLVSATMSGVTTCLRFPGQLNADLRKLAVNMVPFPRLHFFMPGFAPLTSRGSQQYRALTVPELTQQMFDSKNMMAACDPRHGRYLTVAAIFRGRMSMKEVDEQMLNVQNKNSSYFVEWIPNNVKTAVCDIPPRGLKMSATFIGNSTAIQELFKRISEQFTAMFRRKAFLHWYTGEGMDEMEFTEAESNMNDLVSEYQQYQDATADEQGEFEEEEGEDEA
T5 sequence (P81947 whole entry partner): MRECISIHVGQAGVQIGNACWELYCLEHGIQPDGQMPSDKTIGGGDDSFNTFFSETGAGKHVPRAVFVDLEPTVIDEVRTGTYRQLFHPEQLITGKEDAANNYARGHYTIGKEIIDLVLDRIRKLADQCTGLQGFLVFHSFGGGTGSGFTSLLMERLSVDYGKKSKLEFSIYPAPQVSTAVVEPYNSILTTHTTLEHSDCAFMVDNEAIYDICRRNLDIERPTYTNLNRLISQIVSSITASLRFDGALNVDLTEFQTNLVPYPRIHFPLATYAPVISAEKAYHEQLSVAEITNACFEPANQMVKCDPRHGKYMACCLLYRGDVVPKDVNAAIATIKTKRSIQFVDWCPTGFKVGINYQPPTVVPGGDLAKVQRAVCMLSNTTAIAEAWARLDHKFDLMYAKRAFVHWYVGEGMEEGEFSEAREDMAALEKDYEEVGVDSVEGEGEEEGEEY
T3 sequence (P09207 whole entry): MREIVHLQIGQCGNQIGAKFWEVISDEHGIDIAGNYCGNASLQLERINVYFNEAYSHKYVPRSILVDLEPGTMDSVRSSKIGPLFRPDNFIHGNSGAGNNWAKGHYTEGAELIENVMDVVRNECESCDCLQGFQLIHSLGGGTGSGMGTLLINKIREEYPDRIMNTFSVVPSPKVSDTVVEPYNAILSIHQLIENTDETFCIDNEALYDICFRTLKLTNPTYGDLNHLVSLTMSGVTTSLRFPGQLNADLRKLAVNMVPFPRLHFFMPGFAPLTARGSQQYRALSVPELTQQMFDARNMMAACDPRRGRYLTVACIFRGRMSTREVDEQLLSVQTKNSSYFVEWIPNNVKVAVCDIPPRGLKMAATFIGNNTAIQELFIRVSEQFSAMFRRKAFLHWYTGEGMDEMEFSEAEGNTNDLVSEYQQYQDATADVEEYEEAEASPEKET
T4 sequence (Q2T9S0 whole entry): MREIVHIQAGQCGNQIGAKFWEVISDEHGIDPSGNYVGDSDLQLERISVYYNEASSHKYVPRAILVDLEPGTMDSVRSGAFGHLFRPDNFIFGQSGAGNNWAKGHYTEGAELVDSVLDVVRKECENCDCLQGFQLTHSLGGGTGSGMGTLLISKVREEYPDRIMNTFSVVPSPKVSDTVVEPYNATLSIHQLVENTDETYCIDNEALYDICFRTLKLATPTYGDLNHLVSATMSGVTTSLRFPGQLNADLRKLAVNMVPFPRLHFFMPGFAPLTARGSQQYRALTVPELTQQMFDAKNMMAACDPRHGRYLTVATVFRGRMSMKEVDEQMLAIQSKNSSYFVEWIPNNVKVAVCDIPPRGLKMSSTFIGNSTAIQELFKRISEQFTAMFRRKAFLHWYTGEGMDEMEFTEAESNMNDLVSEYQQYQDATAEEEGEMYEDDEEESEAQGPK
T4 sequence (P81947 whole entry partner): as the sequence (P81947 whole entry partner) above
alpha/beta III dimer, sequence (Q2T9S0 whole entry): as the sequence (Q2T9S0 whole entry) above
alpha/beta III dimer, sequence (P81947 whole entry partner, looked up): as the sequence (P81947 whole entry partner) above

Compound: Cc1cccc2c1c1ccc3c(c1n2C)C(=O)C=CC3=O [NSC 645330]
- inhibition of thioredoxin reductase alone (thioredoxin reductase): did not inhibit thioredoxin reductase alone
- activity in the thioredoxin reductase/thioredoxin-dependent insulin assay [1]: active

Compound: CC(=O)O[C@H]1C(=O)[C@@]2(C)[C@H]([C@H](OC(=O)c3ccccc3)[C@]3(O)C[C@H](OC(=O)[C@H](O)[C@@H](NC(=O)c4ccccc4)c4ccccc4)C(C)=C1C3(C)C)[C@]1(OC(C)=O)CO[C@@H]1C[C@@H]2O [paclitaxel]
- interaction of alpha/beta III dimer with ligand (alpha/beta III dimer): much less strongly
- resistance of cell line to drug [2]: resistant

Compound: c1ccc(CSSc2ncc[nH]2)cc1 [DLK-36, benzyl-2-imidazolyl disulfide]
- tumor inhibition [3]: 65%
- antitumor activity against HL-60 leukemia (HL-60 leukemia): showed antitumor activity

Compound: CC[C@]1(O)C[C@@H]2CN(CCc3c([nH]c4ccccc34)[C@@](C(=O)OC)(c3cc4c(cc3OC)N(C)[C@H]3[C@@](O)(C(=O)OC)[C@H](OC(C)=O)[C@]5(CC)C=CCN6CC[C@]43[C@@H]65)C2)C1 [vinblastine]
- erythrocyte tubulin formed spirals (erythrocyte tubulin): 74%
- resistance of cell line to drug [2]: resistant
- brain tubulin aggregated into spirals (brain tubulin): About 42%

Compound: COc1cc(OC)c(Cl)c(-n2c(-c3ccccc3)cc(=O)c(C)c2-c2ccc(F)cc2)c1 [IKP-104]
- apparent dissociation constant for the high-affinity site (Kd1) (alpha/beta III): lower than that of unfractionated tubulin
- apparent dissociation constant for the high-affinity site (Kd1) (alpha/beta II): lower than that of unfractionated tubulin
- apparent dissociation constant for the high-affinity site (Kd1) (alpha/beta IV): greater than those of unfractionated tubulin, alpha/beta II, or alpha/beta III

Compound: CCC(C)SSc1ncc[nH]1 (centres unmarked) [IV-2, 1-methylpropyl 2-imidazolyl disulfide]
- tumor inhibition [3]: 98%
- size of remaining tumors ([4]; p<0.001 compared to control): significant reduction
- reduction of the number of tumors in the colon ([4]; p=0.0160): 70%
- antitumor activity against HL-60 leukemia (HL-60 leukemia): showed antitumor activity

Compound: O=[N+]([O-])C(=C(Sc1ccccc1)Sc1ccccc1)C(Cl)=C(Cl)Cl [NSC 665103]
- inhibition of thioredoxin reductase alone (thioredoxin reductase): did not inhibit thioredoxin reductase alone
- activity in the thioredoxin reductase/thioredoxin-dependent insulin assay [1]: active

Compound: CC1=C(CO)C2=C(C)C3(CC3)[C@@](C)(O)C(=O)C2=C1 [irofulven]
- tolerability [5]: tolerable
- inhibition of thioredoxin reductase and thioredoxin [6]: selectively inhibit both thioredoxin reductase and thioredoxin

Compound: CCCCCCCC(=O)OC1C2C(CC1(C)C)C(=O)C13OC1C(=O)C1(CO1)C23C (centres unmarked) [NSC 163027]
- inhibition of thioredoxin reductase alone (thioredoxin reductase): did not inhibit thioredoxin reductase alone
- activity in the thioredoxin reductase/thioredoxin-dependent insulin assay [1]: active

Compound: cryptophycin
- resistance of cell line to drug [2]: resistant
